Where two headings read alike, the source gives them in different places.
How the values were obtained:
[1] = Growth performance of broiler chickens, floor pen trial over five weeks (Example 6); format: in vivo; conditions: for numerical improvement of weight gain compared to the control: day 1 to day 36
From the text: The objective of the present trial (Trial A) was to evaluate the effects of sucinic acid on the growth performance of broiler chickens in a floor pen trial over five weeks. Succinic acid was supplemented at four different dose levels. […] Each group was placed in one floor pen littered with wood shavings and allocated to one of the different treatments. Each treatment was replicated with 4 groups per sex. Birds had ad libitum access to feed and tap water. […] Chickens received diets based on soybean meal, and wheat as main ingredients (Table 6). […] The target quantities of succinic acid were added on top to the feed, mixed with appropriate amounts of maize starch as a carrier: […] For the statistical evaluation of the data, a one-factorial analysis of variance for each diet (factor: treatment) was carried out. Where significant treatment effects (p<0.05) were indicated, the differences among treatment means were subsequently analyzed with the Newman-Keuls test.

[2] = 0.5% in diet, 29 days
[3] = for Daily feed intake / Live weight of piglets: dietary inclusion 1.0%
[4] = test system: Salmonella enterica subsp enterica serovar Enteritidis; assay: microbe, parasite or virus in culture
Clostridium perfringens = assay: microbe, parasite or virus in culture; format: cell-based
[5] = test system: commensal Escherichia coli; assay: microbe, parasite or virus in culture
[6] = test system: Salmonella enterica subsp enterica serovar Typhimurium; assay: microbe, parasite or virus in culture
Enterococcus faecalis = assay: microbe, parasite or virus in culture

COC[C@H]1O[C@@H](OC2OC[C@@H]3O[C@]4(O[C@H]3[C@H]2OC(=O)C(C)C)O[C@H](C)[C@@](O)(C(C)=O)[C@@H]2OCO[C@H]24)[C@@H](OC)[C@@H](O)[C@@H]1O[C@@H]1O[C@H](C)[C@H](OC)[C@H](O[C@H]2C[C@@]3(C)OC4(C[C@@H](O)[C@H](O[C@H]5C[C@@H](O)[C@H](OC(=O)c6c(C)c(Cl)c(O)c(Cl)c6OC)[C@@H](C)O5)[C@@H](C)O4)O[C@@H]3[C@@H](C)O2)[C@H]1O (stereo partly drawn) [Avilamycin, reference compound]
Feed conversion ([1]; Day 1-22, 10 mg/kg feed): 1.462^A g feed/g gain
Feed conversion, relative to control (100) ([1]; Day 1-22, 10 mg/kg feed): 101.0
Feed intake ([1]; Day 1-22, 10 mg/kg feed): 1450^A g
Weight gain ([1]; Day 1-22, 10 mg/kg feed): 992^BC g
Weight gain, relative to control (100) ([1]; Day 1-22, 10 mg/kg feed): 104.1
Feed conversion ([1]; Day 1-36, 10 mg/kg feed): 1.638^A g feed/g gain
Feed conversion, relative to control (100) ([1]; Day 1-36, 10 mg/kg feed): 100.9
Feed intake ([1]; Day 1-36, 10 mg/kg feed): 3860^A g
Weight gain ([1]; Day 1-36, 10 mg/kg feed): 2359^A g
Weight gain, relative to control (100) ([1]; Day 1-36, 10 mg/kg feed): 102.5
Feed conversion ([1]; Day 22-36, 10 mg/kg feed): 1.769^A g feed/g gain
Feed conversion, relative to control (100) ([1]; Day 22-36, 10 mg/kg feed): 101.1
Feed intake ([1]; Day 22-36, 10 mg/kg feed): 2412^A g
Weight gain ([1]; Day 22-36, 10 mg/kg feed): 1366^A g
Weight gain, relative to control (100) ([1]; Day 22-36, 10 mg/kg feed): 101.4

O=C(O)CCC(=O)O [Succinic acid, succinic acid]
DWG numerically higher than control group [2]: 5%
Weight gain ([2]; group B, n = 24): 6.57 ± 1.91 kg
Feed conversion ([1]; Day 1-22, 2.5 g/kg feed): 1.365^B g feed/g gain
Feed intake ([1]; Day 1-22, 2.5 g/kg feed): 1427^A g
Weight gain ([1]; Day 1-22, 2.5 g/kg feed): 1046^A g
Feed conversion ([1]; Day 1-22, 5 g/kg feed): 1.461^A g feed/g gain
Feed intake ([1]; Day 1-22, 5 g/kg feed): 1446^A g
Weight gain ([1]; Day 1-22, 5 g/kg feed): 991^BC g
Feed conversion ([1]; Day 1-22, 7.5 g/kg feed): 1.372^B g feed/g gain
Feed intake ([1]; Day 1-22, 7.5 g/kg feed): 1445^A g
Weight gain ([1]; Day 1-22, 7.5 g/kg feed): 1054^A g
Feed conversion ([1]; Day 1-22, 10 g/kg feed): 1.381^B g feed/g gain
Feed intake ([1]; Day 1-22, 10 g/kg feed): 1430^A g
Weight gain ([1]; Day 1-22, 10 g/kg feed): 1036^AB g
Feed conversion ([1]; Day 1-36, 2.5 g/kg feed): 1.602^A g feed/g gain
Feed intake ([1]; Day 1-36, 2.5 g/kg feed): 3817^A g
Weight gain ([1]; Day 1-36, 2.5 g/kg feed): 2383^A g
Feed conversion ([1]; Day 1-36, 5 g/kg feed): 1.642^A g feed/g gain
Feed intake ([1]; Day 1-36, 5 g/kg feed): 3793^A g
Weight gain ([1]; Day 1-36, 5 g/kg feed): 2311^A g
Feed conversion ([1]; Day 1-36, 7.5 g/kg feed): 1.612^A g feed/g gain
Feed intake ([1]; Day 1-36, 7.5 g/kg feed): 3870^A g
Weight gain ([1]; Day 1-36, 7.5 g/kg feed): 2404^A g
Feed conversion ([1]; Day 1-36, 10 g/kg feed): 1.651^A g feed/g gain
Feed intake ([1]; Day 1-36, 10 g/kg feed): 3868^A g
Weight gain ([1]; Day 1-36, 10 g/kg feed): 2347^A g
Feed conversion ([1]; Day 22-36, 2.5 g/kg feed): 1.790^A g feed/g gain
Feed intake ([1]; Day 22-36, 2.5 g/kg feed): 2392^A g
Weight gain ([1]; Day 22-36, 2.5 g/kg feed): 1337^A g
Feed conversion ([1]; Day 22-36, 5 g/kg feed): 1.786^A g feed/g gain
Feed intake ([1]; Day 22-36, 5 g/kg feed): 2347^A g
Weight gain ([1]; Day 22-36, 5 g/kg feed): 1320^A g
Feed conversion ([1]; Day 22-36, 7.5 g/kg feed): 1.806^A g feed/g gain
Feed intake ([1]; Day 22-36, 7.5 g/kg feed): 2431^A g
Weight gain ([1]; Day 22-36, 7.5 g/kg feed): 1350^A g
Feed conversion ([1]; Day 22-36, 10 g/kg feed): 1.870^A g feed/g gain
Feed intake ([1]; Day 22-36, 10 g/kg feed): 2442^A g
Weight gain ([1]; Day 22-36, 10 g/kg feed): 1311^A g
numerical improvement of weight gain compared to the control ([1]; 2.5 g per kg feed): 3.6%
numerical improvement of weight gain compared to the control ([1]; 7.5 g per kg feed): 4.5%
improvement of weight gain compared to the control ([1]; starter period (day 1-22), across the different inclusion levels): 3.9% to 10.5
Daily feed intake ([3]; Day 0-14): 368 g
Daily feed intake ([3]; Day 14-24): 649 g
Live weight of piglets ([3]; Day 14): 12.01 kg
Daily feed intake ([3]; Day 24-36): 869 g
Live weight of piglets ([3]; Day 24): 16.90 kg
Live weight of piglets ([3]; Final, day 36): 24.32 kg
Live weight of piglets ([3]; Initial, day 0): 8.51 kg
Daily feed intake ([3]; Overall, day 0-36): 613 g
reduction of feed intake versus control ([3]; day 0-14, dietary level of 1.0%): −25.4%
MIC90 [4]: < 31.2 mM
MIC90 (Clostridium perfringens): < 31.2 mM
MIC90 [5]: < 31.2 mM
MIC90 [6]: < 31.2 mM
MIC90 (Enterococcus faecalis): < 31.2 mM

O=C(O)CC(O)(CC(=O)O)C(=O)O [citric acid, reference compound]
MIC90 [4]: < 31.2 mM
MIC90 (Clostridium perfringens): < 31.2 mM
MIC90 [5]: < 31.2 mM
MIC90 [6]: < 31.2 mM
MIC90 (Enterococcus faecalis): < 31.2 mM
